For two compounds, IC50 results are on record in article PMC7555427, “Discovery of Icotinib-1,2,3-Triazole Derivatives as IDO1 Inhibitors” (Frontiers in Pharmacology, 2020).

Experiment [1] has as its system IDO1. Also noted: method as in Nelp et al., 2018. Particulars: previously reported; ref Nelp et al., 2018; cited from earlier work.
Experiment [2] has as its system Human renal epithelial cell (293T). Put plainly: Cytotoxicity assay, Cell Counting Kit-8 (CCK8), 72 h. The format is cell-based. Conditions: HEK-293T, 293T cells, CCK-8, 72 h. The method, then: Cytotoxity of the chosen compounds was evaluated by the Cell Counting Kit-8 (CCK8, DOJINDO, Japan) assay. The cells were seeded at a density of 2,000 cells per well into 96-well microplate in 100 μl of growth medium. Cells were incubated at 37°C and 5% CO2 overnight. The next day, 100 μl per well of diluted inhibitor in growth medium was added with the final concentration from 0.1nM to 100 μM. The cells were treated with DMSO as control. A series of dilutions were made in 0.1% DMSO in assay medium so that the final concentration of DMSO was 0.1% in all the treatments. Cells were incubated at 37°C and 5% CO2 for 72 h. Then, 10 μl of CCK8 was added to each well. The plates were incubated at 37°C for 2 h, and the plates were recorded by measuring the absorbance at 450 nm with the reference wavelength of 630 nm using an EnVisionMultilabel Reader (PerkinElmer). The IC50 values were calculated and determined by the concentration causing a half-maximal percent activity. All assays were conducted with three parallel samples and three repetitions.
Next, several compounds with submicromolar level of IDO1 inhibitory activities were chosen for further study. Human renal epithelial cell (293T) was chosen for CCK-8 assay to evaluation the bioactivity of these compounds.
Background: Formazan colour is commonly taken as a measure of viable cells.

The target of experiment [3] is T1, IDO1 (Homo sapiens, UniProt P14902).
T1 construct: host or cells: HeLa cells, IDO1 induced with 100 ng/ml human IFN-γ
Briefly: Hela cell-based IDO1 functional assay (kynurenine readout, IFN-γ induced). Particulars: Hela cells, 100 ng/ml human IFN-γ, 18 h; Table 1 and text. The method, then: To perform the Hela cell based IDO1 assay, Hela cells were seeded at 50,000 cells per well into 96-well microplate in 100 μl of DMEM 10% fetal bovine serum 1% Penicillin-Streptomycin. Cells were incubated at 37°C and 5% CO2 overnight.
The next day 100 μl per well of diluted inhibitor in growth medium was added at a final concentration of 100 ng/ml human IFN-γ. Cells were incubated at 37°C in a CO2 incubator for 18 h. The next day 140 μl of medium was moved into a new 96-well plate and 20 μl of 3.05 N trichloroacetic acid (TCA) was added. The plate was incubated at 50°C for 30 min to hydrolyze N-formylkynurenine. The plate was then centrifuged at 2,500 rpm for 10 min to remove sediments. 100 μl of supernatant per well was transferred to another 96-well plate and mixed with 100 μl of 2% (w/v) 4-(Dimethylamino)benzaldehyde in acetic acid. The plate was incubated at room temperature for 10 min, the yellow color derived from kynurenine was recorded by measuring absorbance at 480 nm using a microplate reader (PerkinElmer, USA).
To investigate the IDO1 inhibition activities of the synthesized derivatives, all the new compounds and icotinib were screened via Hela cell-based functional assay using methods described in the literature ([Yue et al., 2009]; [Malachowski et al., 2016]; [Qian et al., 2016]).

T1 sequence (P14902 whole entry): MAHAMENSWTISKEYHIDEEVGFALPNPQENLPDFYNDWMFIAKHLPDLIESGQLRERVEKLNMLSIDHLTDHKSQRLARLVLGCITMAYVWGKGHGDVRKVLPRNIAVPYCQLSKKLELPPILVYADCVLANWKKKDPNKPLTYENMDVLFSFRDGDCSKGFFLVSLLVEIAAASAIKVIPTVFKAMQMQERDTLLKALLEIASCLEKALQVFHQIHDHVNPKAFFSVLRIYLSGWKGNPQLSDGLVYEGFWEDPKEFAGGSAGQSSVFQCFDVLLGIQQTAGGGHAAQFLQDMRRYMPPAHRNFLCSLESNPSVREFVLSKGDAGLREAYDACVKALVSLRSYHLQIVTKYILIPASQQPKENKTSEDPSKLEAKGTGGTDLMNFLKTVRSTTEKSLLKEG

As to `C[C@@H](C(=O)Nc1ccc(Cl)cc1)C1CCC(c2ccnc3ccc(F)cc23)CC1` (stereo partly drawn) [BMS-986205], the IC50 (in general, the midpoint of a concentration-inhibition curve) in the experiment with IDO1 [1] was […].
In the case of `Brc1cccc(Cn2cc(-c3cccc(Nc4ncnc5cc6c(cc45)OCCOCCOCCO6)c3)nn2)c1` [a17, {3-[1-(3-Bromo-benzyl)-1H-[1,2,3]triazol-4-yl]-phenyl}-(7,8,10,11,13,14-hexahydro-6,9,12,15-tetraoxa-1,3-diaza-cyclododeca[b]naphthalen-4-yl)-amine], the figures for the IC50 (in experiment [2]; against IDO1 [3]) were 3.1 ± 0.2 µM and 0.37 ± 0.02 µM, respectively.
